Paper PMC4423596 (Angewandte Chemie (International ed. in English), 2015)

Experiments:
[1] = biological target: T1, CBP/p300 KIX domain (Mus musculus, UniProt P45481); assay: PrOF NMR ligand titration; assay type: binding
[2] = tested on: MLL-KIX PPI site; details: cited from earlier work
[3] = biological target: T1, CBP/p300 KIX domain; assay: PrOF NMR chemical shift perturbation at fixed ligand concentration; assay type: binding; details: 3FY-labeled KIX; 833 µM to 5 mM small molecule

T1 sequence (P45481 586-665): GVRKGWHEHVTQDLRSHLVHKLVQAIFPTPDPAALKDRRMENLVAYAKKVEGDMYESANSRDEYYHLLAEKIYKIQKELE

Row | Compound | IC50 [2] [µM] | chemical shift perturbation (PrOF NMR), in words [3] | also measured
1 | CC(C(=O)O)c1ccc(-c2ccccc2)c(F)c1 (stereo not drawn) [Flurbiprofen, flurbiprofen] |  |  | Kd [1]: 5900 ± 600 µM; Ligand Efficiency ([1]; calculated from the PrOF Kd): 0.17 kcal mol^−1 NHA^−1
2 | CCCc1cc(OC)cc(O)c1C(=O)Oc1c(OC)cc(CCC)c(C(=O)O)c1O [sekikaic acid] | 34 |  | 
3 | O=C(Nc1ccc(Cl)cc1)c1cc2ccccc2cc1OP(=O)(O)O [KG-501, Naphthol AS-E phosphate] |  | identified a binding interaction | 
4 | CC(C)Cc1ccc(C(C)C(=O)O)cc1 (stereo not drawn) [ibuprofen] |  | significant chemical shift perturbations | 
5 | CCCCCc1c2c(cc(O)c1C(=O)O)OC(=O)c1c(cc(OC)cc1C(=O)CCCC)O2 [lobaric acid] | 17 |  | 
